Experiments:
[1] = Metabolic stability assay, human liver microsome and homogenate incubations; assay type: in vitro ADME; conditions: human liver homogenate or microsomes
Protocol: Metabolic Stability Assay The in vitro metabolic stability of the compounds of the invention was determined for exemplified compounds using human liver microsome and homogenate incubations. The incubation time points used with or without appropriate cofactors were 0 min and 60 min. Samples were collected at both time points and substrates were detected using LC/PDA/TOF-MS. In vitro metabolic stability (% remaining after 60 min in human liver homogenate or microsomes) of the compounds were calculated and the results are summarized in Table 3.

[2] = molecular target: T1, Recombinant Human 17β-HSD2 (Homo sapiens, UniProt P37059); experiment: Inhibition of recombinant human 17β-HSD2 (conversion of 3H-estradiol to estrone, HPLC); assay type: biochemical; conditions: inhibitor at 1 μM; 50 nM estradiol, 1 mM NADH, 30 min at RT; read-out: 17β-HSD2 Inhibition % at 1 μM
T1 construct: made in house; host or cells: Sd9 (Sf9) insect cells, baculovirus (Bac to Bac Expression System)
T1 sequence (P37059 1-387): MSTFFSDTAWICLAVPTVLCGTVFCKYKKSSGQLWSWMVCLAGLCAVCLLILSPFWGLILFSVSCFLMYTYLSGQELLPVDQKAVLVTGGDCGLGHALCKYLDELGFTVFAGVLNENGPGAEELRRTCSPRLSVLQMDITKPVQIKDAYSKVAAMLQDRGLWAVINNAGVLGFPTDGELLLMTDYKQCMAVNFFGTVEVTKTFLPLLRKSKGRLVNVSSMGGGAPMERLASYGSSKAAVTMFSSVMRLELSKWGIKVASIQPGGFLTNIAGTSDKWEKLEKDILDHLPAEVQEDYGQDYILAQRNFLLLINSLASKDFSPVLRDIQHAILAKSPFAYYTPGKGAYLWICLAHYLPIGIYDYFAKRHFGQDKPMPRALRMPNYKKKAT
Protocol: 17β-HSD2 Production and Isolation:
Similarly to 17β-HSD1 the Recombinant baculovirus was generated by the “Bac to Bac Expression System” (Invitrogen). Recombinant bacmid was transfected to Sd9 insect cells using “Cellfectin Reagent” (Invitrogen). 60 h later cells were harvested and supernatant were fractionated by the following protocol: • cells were dissolved into 40 ml of A-buffer (40 mM TRIS, pH8.0, 20% glycerol, 20 μM NAD, 0.4 mM PMSF, 150 mM NaCl, 0.5% dodecyl-β-maltoside+protease inhibitor cocktail) • cells were sonicated • lysate was incubated on ice for 15 min • lysate was centrifuged 5000 rpm 15 min, +4° C. • centrifugation of the supernatant 180.000 g 30 min, +4° C. • pellet was dissolved into 8 ml of A-buffer • not resuspended material was removed by centrifugation 5000 rpm 15 min, +4° C. • the clear supernatant was divided into 100 μl aliquots and were stored frozen until determination of enzymatic activity.
The amount of 17β-HSD2 was analysed by immunoblotting and total protein concentration of each extract batch was determined.
Assay—Inhibition of Recombinant Human 17β-HSD2:
Recombinant protein (4 μg/ml) was incubated in 20 mM KH2PO4 pH 8.5 with 50 nM estradiol (including 800.000 cpm/ml of ^3H-estradiol) and 1 mM NADH for 30 min at RT, in the presence of the potential inhibitor at concentrations 1 μM or 0.1 μM. Inhibitor stock solutions were prepared in DMSO. Final concentration of DMSO was adjusted to 1% in all samples. The enzyme reaction was stopped by addition of 10% trichloroacetic acid (final concentration). Samples were centrifuged in a microtiter plate at 4000 rpm for 10 min. Supernatants were applied to reverse phase HPLC on a Waters Symmetry C18 column, equipped with a Waters Sentry Guard column. Isocratic HPLC runs were performed at RT at a flow rate of 1 ml/min in acetonitrile:water 48:52 as running solvent. Radioactivity was monitored in the eluate by a Packard Flow Scintillation Analyzer. Total radioactivity for estrone and estradiol were determined in each sample and percent conversion of estradiol to estrone was calculated according to the following formula:
(§1) Percent inhibition was calculated flowingly: % inhibition=100−% conversion

[3] = molecular target: T2, Recombinant Human 17β-HSD1 (Homo sapiens, UniProt P14061); experiment: Inhibition of recombinant human 17β-HSD1 (conversion of 3H-estrone to estradiol, HPLC); assay type: biochemical; conditions: inhibitor at 1 μM; 30 nM estrone, 1 mM NADPH, 30 min at RT; read-out: 17β-HDS1 Inhibition % at 1 μM
T2 construct: made in house; host or cells: Sd9 (Sf9) insect cells, baculovirus (Bac to Bac Expression System)
T2 sequence (P14061 1-328): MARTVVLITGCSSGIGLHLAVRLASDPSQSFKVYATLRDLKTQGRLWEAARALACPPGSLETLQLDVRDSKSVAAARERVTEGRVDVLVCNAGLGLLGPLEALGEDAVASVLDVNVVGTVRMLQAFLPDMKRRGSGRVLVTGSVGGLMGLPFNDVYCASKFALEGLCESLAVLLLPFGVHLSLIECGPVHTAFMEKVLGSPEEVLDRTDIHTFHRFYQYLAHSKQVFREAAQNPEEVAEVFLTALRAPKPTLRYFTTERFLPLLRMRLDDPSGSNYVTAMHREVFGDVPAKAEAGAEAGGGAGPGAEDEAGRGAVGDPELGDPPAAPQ
Protocol: 17β-HSD1 Production and Isolation:
Recombinant baculovirus was generated by the “Bac to Bac Expression System” (Invitrogen). Recombinant bacmid was transfected to Sd9 insect cells using “Cellfectin Reagent” (Invitrogen). 60 h later cells were harvested; the microsomal fraction was isolated as described by Puranen, T. J., Poutanen, M. H., Peltoketo, H. E., Vihko, P. T. and Vihko, R. K. (1994) Site-directed mutagenesis of the putative active site of human 17 β-hydroxysteroid dehydrogenase type 1. Biochem. J. 304: 289-293. Aliquots were stored frozen until determination of enzymatic activity.
Assay—Inhibition of Recombinant Human 17β-HSD1:
Recombinant protein (1 μg/ml) was incubated in 20 mM KH2PO4 pH 7.4 with 30 nM estrone (including 800.000 cpm/ml of ^3H-estrone) and 1 mM NADPH for 30 min at RT, in the presence of the potential inhibitor at concentrations 1 μM or 0.1 μM. Inhibitor stock solutions were prepared in DMSO. Final concentration of DMSO was adjusted to 1% in all samples. The enzyme reaction was stopped by addition of 10% trichloroacetic acid (final concentration). Samples were centrifuged in a microtiter plate at 4000 rpm for 10 min. Supernatants were applied to reverse phase HPLC on a Waters Symmetry C18 column, equipped with a Waters Sentry Guard column. Isocratic HPLC runs were performed at RT at a flow rate of 1 ml/min in acetonitrile:water 48:52 as running solvent. Radioactivity was monitored in the eluate by a Packard Flow Scintillation Analyzer. Total radioactivity for estrone and estradiol were determined in each sample and percent conversion of estrone to estradiol was calculated according to the following formula:
as §1

Structure (SMILES): CO[C@H]1C[C@@H](CCC(=O)Nc2ncc(C)s2)C2C3CCc4cc(O)ccc4C3CC[C@@]21C (stereo partly drawn) [Compound 17, 3-((13S,15R,17S)-3-hydroxy-17-methoxy-13-methyl-7,8,9,11,12,13,14,15,16,17-decahydro-6H-cyclopenta[a]phenanthren-15-yl)-N-(5-methylthiazol-2-yl)propanamide]
- In vitro metabolic stability, % remaining after 60 min [1]: 37%
- inhibition at 1 µM [2]: 4%
- inhibition at 1 µM [3]: 79%

Structure (SMILES): CCCC[C@]1(O)C[C@@H](CCC(=O)Nc2ncc(C)s2)C2C3CCc4cc(O)ccc4C3CC[C@@]21C (stereo partly drawn) [Compound 19, 3-((13S,15R,17S)-17-butyl-3,17-dihydroxy-13-methyl-7,8,9,11,12,13,14,15,16,17-decahydro-6H-cyclopenta[a]phenanthren-15-yl)-N-(5-methylthiazol-2-yl)propanamide]
- In vitro metabolic stability, % remaining after 60 min [1]: 90%
- inhibition at 1 µM [2]: 6%
- inhibition at 1 µM [3]: 93%

Structure (SMILES): CC(=O)O[C@H]1C[C@@H](CCC(=O)Nc2ncc(C)s2)C2C3CCc4cc(OC(=O)c5ccccc5)ccc4C3CC[C@@]21C (stereo partly drawn) [Compound 55, Benzoic acid (13S,15R,17S)-17-acetoxy-13-methyl-15-[2-(5-methylthiazol-2-ylcarbamoyl)-ethyl]-17-oxo-7,8,9,11,12,13,14,15,16,17-decahydro-6H-cyclopenta[a]phenanthren-3-yl ester]
- In vitro metabolic stability, % remaining after 60 min [1]: 47%
